# Measurements from patent publication US11759455B2, “Substituted 1H-imidazo[4,5-b]pyridin-2(3H)-ones and their use as GLUN2B receptor modulators” (JANSSEN PHARMACEUTICA NV, priority 2016, dated 2023).
# Target: T1, human GluN1/GluN2B NMDA receptors (Homo sapiens, UniProt Q13224)
# T1 construct: expressed in transfected cells
# Test: Cell-based calcium flux (FLIPR) assay on cloned human NR1/NR2B ion channels expressed in mammalian cells (standard and HTS buffer variants);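 also: stable Tet-On inducible cell line, Ca2+ influx triggered by glutamate at about EC40 plus 10 µM glycine, fluorescent dye read-out over 5 min, normalized to control wells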
# Conditions: standard assay buffer (0.5 mM MgCl2 in dye loading buffer; 137 mM NaCl, 4 mM KCl in assay buffer), human GluN1/GluN2B, read-out: NR2B IC50 (μM) standard assay
# T1 sequence (Q13224 27-1484, other chains not shown): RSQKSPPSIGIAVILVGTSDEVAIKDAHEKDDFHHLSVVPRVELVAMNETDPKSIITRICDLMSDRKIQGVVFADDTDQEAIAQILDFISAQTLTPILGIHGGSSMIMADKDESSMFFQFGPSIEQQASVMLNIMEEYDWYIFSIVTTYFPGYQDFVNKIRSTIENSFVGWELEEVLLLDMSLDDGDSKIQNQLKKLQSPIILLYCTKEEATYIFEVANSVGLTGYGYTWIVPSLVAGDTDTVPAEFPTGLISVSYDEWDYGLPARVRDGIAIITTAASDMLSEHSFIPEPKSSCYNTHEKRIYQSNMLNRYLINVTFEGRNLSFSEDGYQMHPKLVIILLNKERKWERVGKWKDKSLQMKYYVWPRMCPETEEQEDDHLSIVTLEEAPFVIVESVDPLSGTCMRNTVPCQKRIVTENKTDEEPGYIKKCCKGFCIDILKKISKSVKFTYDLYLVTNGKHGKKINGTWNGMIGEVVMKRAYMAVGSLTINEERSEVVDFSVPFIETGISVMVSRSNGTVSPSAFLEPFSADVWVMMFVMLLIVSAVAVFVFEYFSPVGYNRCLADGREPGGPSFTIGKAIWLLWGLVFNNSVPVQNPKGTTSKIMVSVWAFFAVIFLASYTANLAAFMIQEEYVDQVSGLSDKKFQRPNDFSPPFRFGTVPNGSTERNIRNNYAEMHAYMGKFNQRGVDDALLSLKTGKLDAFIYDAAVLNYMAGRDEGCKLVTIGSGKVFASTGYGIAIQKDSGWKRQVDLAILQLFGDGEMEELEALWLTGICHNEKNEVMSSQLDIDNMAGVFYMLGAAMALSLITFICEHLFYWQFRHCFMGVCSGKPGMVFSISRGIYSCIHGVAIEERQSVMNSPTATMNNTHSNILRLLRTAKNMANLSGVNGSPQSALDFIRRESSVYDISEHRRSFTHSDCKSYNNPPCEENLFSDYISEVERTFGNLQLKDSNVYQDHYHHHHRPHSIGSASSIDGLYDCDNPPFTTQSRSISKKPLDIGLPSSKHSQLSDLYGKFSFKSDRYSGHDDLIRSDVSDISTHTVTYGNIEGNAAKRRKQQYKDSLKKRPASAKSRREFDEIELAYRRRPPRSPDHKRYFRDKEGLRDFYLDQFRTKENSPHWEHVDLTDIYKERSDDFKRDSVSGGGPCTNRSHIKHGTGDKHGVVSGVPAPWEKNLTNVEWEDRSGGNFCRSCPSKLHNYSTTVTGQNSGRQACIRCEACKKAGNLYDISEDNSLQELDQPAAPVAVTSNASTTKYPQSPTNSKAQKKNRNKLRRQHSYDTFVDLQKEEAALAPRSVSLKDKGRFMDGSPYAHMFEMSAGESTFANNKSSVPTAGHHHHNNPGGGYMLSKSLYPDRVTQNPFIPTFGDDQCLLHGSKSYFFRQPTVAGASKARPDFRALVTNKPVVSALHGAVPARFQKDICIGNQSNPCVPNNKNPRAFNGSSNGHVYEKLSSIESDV
row,Compound,IC50
1,"Cn1c(=O)n(Cc2cncc(F)c2)c2cc(-c3ccc(F)c(OC(F)F)c3)cnc21 [Example 547, 6-[3-(Difluoromethoxy)-4-fluoro-phenyl]-1-[(5-fluoro-3-pyridyl)methyl]-3-methyl-imidazo[4,5-b]pyridin-2-one]",0.036 µM
2,"Cn1c(=O)n(Cc2csnn2)c2cc(-c3cccc(C(F)(F)F)c3)cnc21 [Example 548, 3-Methyl-1-(thiadiazol-4-ylmethyl)-6-[3-(trifluoromethyl)phenyl]imidazo[4,5-b]pyridin-2-one]",0.185 µM
3,"Cn1cc(Cn2c(=O)n(C)c3ncc(-c4ccc(F)c(F)c4)cc32)nn1 [Example 549, 6-(3,4-Difluorophenyl)-3-methyl-1-[(1-methyltriazol-4-yl)methyl]imidazo[4,5-b]pyridin-2-one]",0.467 µM
4,"Cn1cc(Cn2c(=O)n(C)c3ncc(-c4ccc(F)c(F)c4)cc32)cn1 [Example 550, 6-(3,4-Difluorophenyl)-3-methyl-1-[(1-methylpyrazol-4-yl)methyl]imidazo[4,5-b]pyridin-2-one]",0.697 µM
5,"Cn1cc(Cn2c(=O)n(C)c3ncc(-c4cccc(C(F)(F)F)c4)cc32)cn1 [Example 551, 3-Methyl-1-[(1-methylpyrazol-4-yl)methyl]-6-[3-(trifluoromethyl)phenyl]imidazo[4,5-b]pyridin-2-one]",0.19 µM
6,"Cn1cc(Cn2c(=O)n(C)c3ncc(-c4cccc(C(F)(F)F)c4)cc32)nn1 [Example 552, 3-Methyl-1-[(1-methyltriazol-4-yl)methyl]-6-[3-(trifluoromethyl)phenyl]imidazo[4,5-b]pyridin-2-one]",0.13 µM
7,"Cc1ccc(-c2cnc3c(c2)n(Cc2cn(C)nn2)c(=O)n3C)s1 [Example 553, 3-Methyl-6-(5-methyl-2-thienyl)-1-[(1-methyltriazol-4-yl)methyl]imidazo[4,5-b]pyridin-2-one]",0.726 µM
8,"Cc1nnc(Cn2c(=O)n(C)c3ncc(-c4ccc(C)s4)cc32)o1 [Example 554, 3-Methyl-1-[(5-methyl-1,3,4-oxadiazol-2-yl)methyl]-6-(5-methyl-2-thienyl)imidazo[4,5-b]pyridin-2-one]",0.533 µM
9,"Cc1ccc(-c2cnc3c(c2)n(Cc2cnn(C)c2)c(=O)n3C)s1 [Example 555, 3-Methyl-1-[(1-methylpyrazol-4-yl)methyl]-6-(5-methyl-2-thienyl)imidazo[4,5-b]pyridin-2-one]",1.31 µM
10,"Cc1ccc(-c2cnc3c(c2)n(Cc2csnn2)c(=O)n3C)s1 [Example 556, 3-Methyl-6-(5-methyl-2-thienyl)-1-(thiadiazol-4-ylmethyl)imidazo[4,5-b]pyridin-2-one]",0.363 µM
11,"Cc1noc(Cn2c(=O)n(C)c3ncc(-c4ccc(C)s4)cc32)n1 [Example 557, 3-Methyl-1-[(3-methyl-1,2,4-oxadiazol-5-yl)methyl]-6-(5-methyl-2-thienyl)imidazo[4,5-b]pyridin-2-one]",0.671 µM
12,"Cc1cc(Cn2c(=O)n(C)c3ncc(-c4ccc(C)s4)cc32)no1 [Example 558, 3-Methyl-1-[(5-methylisoxazol-3-yl)methyl]-6-(5-methyl-2-thienyl)imidazo[4,5-b]pyridin-2-one]",0.216 µM
13,"Cn1cc(Cn2c(=O)n(C)c3ncc(-c4ccc(C(F)F)s4)cc32)nn1 [Example 559, 6-[5-(Difluoromethyl)-2-thienyl]-3-methyl-1-[(1-methyltriazol-4-yl)methyl]imidazo[4,5-b]pyridin-2-one]",0.28 µM
14,"Cc1nnc(Cn2c(=O)n(C)c3ncc(-c4ccc(C(F)F)s4)cc32)o1 [Example 560, 6-[5-(Difluoromethyl)-2-thienyl]-3-methyl-1-[(5-methyl-1,3,4-oxadiazol-2-yl)methyl]imidazo[4,5-b]pyridin-2-one]",0.304 µM
15,"Cn1cc(Cn2c(=O)n(C)c3ncc(-c4ccc(C(F)F)s4)cc32)cn1 [Example 561, 6-[5-(Difluoromethyl)-2-thienyl]-3-methyl-1-[(1-methylpyrazol-4-yl)methyl]imidazo[4,5-b]pyridin-2-one]",0.354 µM
16,"Cn1c(=O)n(Cc2csnn2)c2cc(-c3ccc(C(F)F)s3)cnc21 [Example 562, 6-[5-(Difluoromethyl)-2-thienyl]-3-methyl-1-(thiadiazol-4-ylmethyl)imidazo[4,5-b]pyridin-2-one]",0.166 µM
17,"Cc1noc(Cn2c(=O)n(C)c3ncc(-c4ccc(C(F)F)s4)cc32)n1 [Example 563, 6-[5-(Difluoromethyl)-2-thienyl]-3-methyl-1-[(3-methyl-1,2,4-oxadiazol-5-yl)methyl]imidazo[4,5-b]pyridin-2-one]",0.316 µM
18,"Cc1cc(Cn2c(=O)n(C)c3ncc(-c4ccc(C(F)F)s4)cc32)no1 [Example 564, 6-[5-(Difluoromethyl)-2-thienyl]-3-methyl-1-[(5-methylisoxazol-3-yl)methyl]imidazo[4,5-b]pyridin-2-one]",0.087 µM
19,"Cn1cc(Cn2c(=O)n(C)c3ncc(-c4ccc(C(F)(F)F)s4)cc32)cn1 [Example 565, 3-Methyl-1-[(1-methylpyrazol-4-yl)methyl]-6-[5-(trifluoromethyl)-2-thienyl]imidazo[4,5-b]pyridin-2-one]",0.374 µM
20,"Cn1cc(Cn2c(=O)n(C)c3ncc(-c4ccc(C(F)(F)F)s4)cc32)nn1 [Example 566, 3-Methyl-1-[(1-methyltriazol-4-yl)methyl]-6-[5-(trifluoromethyl)-2-thienyl]imidazo[4,5-b]pyridin-2-one]",0.349 µM
21,"Cc1nnc(Cn2c(=O)n(C)c3ncc(-c4ccc(C(F)(F)F)s4)cc32)o1 [Example 567, 3-Methyl-1-[(5-methyl-1,3,4-oxadiazol-2-yl)methyl]-6-[5-(trifluoromethyl)-2-thienyl]imidazo[4,5-b]pyridin-2-one]",0.146 µM
22,"Cn1c(=O)n(Cc2csnn2)c2cc(-c3ccc(C(F)(F)F)s3)cnc21 [Example 568, 3-Methyl-1-(thiadiazol-4-ylmethyl)-6-[5-(trifluoromethyl)-2-thienyl]imidazo[4,5-b]pyridin-2-one]",0.305 µM
23,"Cc1noc(Cn2c(=O)n(C)c3ncc(-c4ccc(C(F)(F)F)s4)cc32)n1 [Example 569, 3-Methyl-1-[(3-methyl-1,2,4-oxadiazol-5-yl)methyl]-6-[5-(trifluoromethyl)-2-thienyl]imidazo[4,5-b]pyridin-2-one]",0.412 µM
24,"Cc1cc(Cn2c(=O)n(C)c3ncc(-c4ccc(C(F)(F)F)s4)cc32)no1 [Example 570, 3-Methyl-1-[(5-methylisoxazol-3-yl)methyl]-6-[5-(trifluoromethyl)-2-thienyl]imidazo[4,5-b]pyridin-2-one]",0.139 µM
25,"Cc1cc(Cn2c(=O)n(C)c3ncc(-c4ccc(F)c(C)c4F)cc32)no1 [Example 571, 6-(2,4-Difluoro-3-methyl-phenyl)-3-methyl-1-[(5-methylisoxazol-3-yl)methyl]imidazo[4,5-b]pyridin-2-one]",0.037 µM
26,"Cc1c(F)ccc(-c2cnc3c(c2)n(Cc2cnn(C)c2)c(=O)n3C)c1F [Example 572, 6-(2,4-Difluoro-3-methyl-phenyl)-3-methyl-1-[(1-methylpyrazol-4-yl)methyl]imidazo[4,5-b]pyridin-2-one]",0.15 µM
27,"Cc1noc(Cn2c(=O)n(C)c3ncc(-c4ccc(F)c(C)c4F)cc32)n1 [Example 573, 6-(2,4-Difluoro-3-methyl-phenyl)-3-methyl-1-[(3-methyl-1,2,4-oxadiazol-5-yl)methyl]imidazo[4,5-b]pyridin-2-one]",0.043 µM
